Assay results reported in patent US20210292843A1, “TREATMENT OF DISEASES ASSOCIATED WITH ACTIVATED IRAK” (CHILDREN'S HOSPITAL MEDICAL CENTER, priority 2016, published 2021).

Legend:
Assay type in all cases: cell-based, human
[1] = system: phospho-IRAK1, phospho-pIKK, and phospho-p65; experiment: Immunoblotting of innate immune signaling after IRAK1/4 inhibitor treatment; settings: S34F-U2AF1 K562 cells; IRAK1/4 inhibitor for 1 hour and 2 hours; immunoblot (FIG. 13A)
Procedure: Total protein lysates were obtained from cells by lysing the samples in cold RIPA buffer (50 mM Tris-HCl, 150 mM NaCl, 1 mM EDTA, 1% Triton X-100 and 0.1% SDS), in the presence of PMSF, sodium orthovanadate, protease and phosphatase inhibitors. Protein concentration was evaluated by a BCA assay (32106, Pierce, Rockford, Ill.). The bound proteins were separated by SDS-polyacrylamide gel electrophoresis, transferred to nitrocellulose membranes, and analyzed by immunoblotting. Western blot analysis was performed with the following antibodies: IRAK4 C-term (ab5985; Abcam, Cambridge, UK), IRAK N-term (4363; Cell Signaling Technology), GAPDH (5174; Cell Signaling Technology), Flag (F3165; Sigma, St. Louis, Mo.), IRAK1 (sc-7883; Santa Cruz, Dallas, Tex.), phospho-IRAK1 (T209) (A1074; AssaybioTech, Sunnyvale, Calif.), U2AF1 (ab86305; Abeam), IKKβ (2370; Cell Signaling Technology), phospho-IKKα/β (2697; Cell Signaling Technology), p38 MAPK (9212; Cell Signaling Technology), phopho-p38 MAPK (4631; Cell Signaling Technology), ERK (4695; Cell Signaling Technology), phospho-ERK (4377; Cell Signaling Technology), p65 (8242; Cell Signaling Technology) and phospho-p65 (3033; Cell Signaling Technology).
Doxycycline-inducible FLAG-tagged WT U2AF1 or FLAG-tagged mutant U2AF1(S34F) lentiviral expression plasmids have been previously described, and lentivirus was generated in 293T cells with the packaging plasmids pMD-G, pMD-Lg and REV. Concentrated virus (multiplicity of infection (MOI) of 3 for K562, MOI of 5 for OCI-AML3) was used to transduce K562 cells (ATCC, CCL243) or OCI-AML3 (DSMZ, ACC 582). […]
(§1) It was then investigated in whether or not there was a therapeutic opportunity in a subset of patients with increased IRAK4-Long expression, since expression of IRAK4-Long is associated with poor AML patient outcome (as described in Example 4, above). […] K562 WT- and S34F-U2AF1 were treated with DMSO or 10 uM IRAK1/4 inhibitor for 7 days, and cell viability was monitored by trypan blue exclusion. […]
(§2) Viability was measured by Trypan Blue staining. […] Colonies were counted after 7 days.

K562 S34F-U2AF1 cells [2] = experiment: Growth curve, cell viability by trypan blue exclusion; settings: 10 uM inhibitor vs DMSO, S34F-U2AF1 cells (FIG. 13B)
From the text: (§3) Doxycycline-inducible FLAG-tagged WT U2AF1 or FLAG-tagged mutant U2AF1(S34F) lentiviral expression plasmids have been previously described, and lentivirus was generated in 293T cells with the packaging plasmids pMD-G, pMD-Lg and REV. Concentrated virus (multiplicity of infection (MOI) of 3 for K562, MOI of 5 for OCI-AML3) was used to transduce K562 cells (ATCC, CCL243) or OCI-AML3 (DSMZ, ACC 582). Transduced cells (marked by green fluorescent protein) were isolated by flow cytometry cell sorting. Expression of mutant or WT U2AF1 was induced using the indicated concentrations of doxycycline hyclate (Sigma) in water. (Shirai C, et al., 2017)
(§4) Trypan blue exclusion was measured using an automated cell counter (BioRad, Hercules, Calif., TC10). Cells were replenished with fresh media, doxycycline and drug every fifth day.
as §1, §2

K562 WT-U2AF1 cells = experiment: as above; settings: 10 uM inhibitor vs DMSO, 7 days, WT-U2AF1 cells (FIG. 13B)
From the text: as §3, §4, §1, §2

K562 S34F-U2AF1 cells [3] = experiment: Clonogenic progenitor assay in methylcellulose; settings: 10 uM inhibitor, colonies counted after 7 days, S34F-U2AF1 compared to WT-U2AF1 cells (FIG. 13C)
From the text: as §3
Clonogenic progenitor frequencies were determined by plating 1×10^3 K562 cells/ml in methylcellulose (Methocult H4236; Stem Cell Technologies). Colonies were scored after 7 days.
as §1, §2

## O=C(Nc1nc2ccccc2n1CCN1CCOCC1)c1cccc([N+](=O)[O-])c1 [IRAK1/4 inhibitor]
[1]
  phospho-IRAK1 level: returned to normal
  phospho-p65 level: returned to normal
  phospho-pIKK level: returned to normal
K562 S34F-U2AF1 cells [2]
  cell viability / survival over 7 days: significantly reduced survival
K562 WT-U2AF1 cells
  decrease in proliferation and viability: not seen
K562 S34F-U2AF1 cells [3]
  colonies in methylcellulose (leukemic progenitor function): significantly fewer colonies
